Experimental findings from patent US20260200920A1, “SUBSTITUTED AMINOPYRIDINE COMPOUNDS FOR USE AS AKT1 INHIBITORS” (Atavistik Bio, Inc., priority 2023, published 2026) are described below.

Assay [1] addresses T1, human recombinant kinase full-length wildtype AKT1 (Homo sapiens, UniProt P31749).
T1 construct: Purified human recombinant kinase full-length wildtype AKT1 was expressed in insect cells; made in house; host or cells: insect cells
As to the kind of experiment: AKT1 kinase assay (wildtype, TR-FRET, Lance). Type of assay: biochemical. The note with it: 0.6 nM wildtype AKT1, 50 nM Ulight-CREBtide, either 50 μM ATP or 2 mM ATP, 60 min at RT. Put shortly:
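Insect-cell-expressed full-length human AKT1, PDPK1-activated (0.6 nM), preincubated with compound 15 min at RT, then reacted 60 min at RT with 50 nM ULight-CREBtide and 50 μM or 2 mM ATP (pH 7.5, 1% DMSO). Phospho-CREBtide read by Eu-anti-phospho-Ser133 TR-FRET (665/620 ratio); IC50 from 10-point 4-parameter fit.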

Assay [2] concerns the target T2, human recombinant kinase full-length AKT1 E17K (Homo sapiens, UniProt P31749, E17K).
T2 construct: Purified human recombinant kinase full-length AKT1 E17K was expressed in insect cells; made in house; host or cells: insect cells
As to the kind of experiment: AKT1 E17K kinase assay (TR-FRET, Lance). Type of assay: biochemical. To be noted: 0.6 nM AKT1 E17K, 50 nM Ulight-CREBtide, either 50 μM ATP or 2 mM ATP, 60 min at RT. Put shortly:
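Full-length AKT1 E17K from insect cells, PDPK1-activated, at 0.6 nM with 50 nM Ulight-CREBtide and 50 μM or 2 mM ATP, pH 7.5, 1% DMSO. Enzyme and compound preincubated 15 min, reaction run 60 min at RT; Eu-anti-phospho-CREB (Ser133) TR-FRET 665/620 ratio, 10-point curve, IC50 by 4-parameter fit.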
Background: In TR-FRET formats the signal depends on donor and acceptor labels being close together.

T1 sequence (P31749 whole entry): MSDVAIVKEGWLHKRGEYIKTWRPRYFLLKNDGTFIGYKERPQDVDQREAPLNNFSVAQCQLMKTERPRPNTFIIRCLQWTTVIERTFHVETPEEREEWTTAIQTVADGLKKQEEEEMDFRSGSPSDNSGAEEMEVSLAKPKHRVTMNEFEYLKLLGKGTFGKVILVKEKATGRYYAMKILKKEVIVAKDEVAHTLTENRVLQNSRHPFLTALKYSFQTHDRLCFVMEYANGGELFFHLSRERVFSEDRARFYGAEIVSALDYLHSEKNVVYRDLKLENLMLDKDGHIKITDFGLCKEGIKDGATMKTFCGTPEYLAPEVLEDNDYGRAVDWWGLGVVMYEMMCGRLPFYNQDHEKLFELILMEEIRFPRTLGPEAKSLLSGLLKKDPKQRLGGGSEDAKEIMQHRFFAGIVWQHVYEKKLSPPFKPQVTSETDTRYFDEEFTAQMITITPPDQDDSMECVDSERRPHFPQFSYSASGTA
T2 sequence (P31749 whole entry E17K): as the sequence (P31749 whole entry) above, with E17K counted along it

A word on the IC50: it is the point on the concentration scale where inhibition reaches its midpoint. For `Nc1ncccc1-c1nc2ccc(-c3ccccc3)nc2n1-c1ccc(C2CN(C[C@@H]3CC4CC3CC4C(=O)O)C2)cc1` (stereo partly shown) [Compound I-150], the values for the IC50 in assay [1] and in assay [2] were less than 20 µM and less than 0.5 µM, respectively.

Regarding `Nc1ncccc1-c1nc2cc(-c3cccnc3)cnc2n1-c1ccc(C2CN(C[C@H]3CC[C@H](C(=O)O)CC3)C2)cc1` [Compound I-73, (1r,4r)-4-((3-(4-(2-(2-aminopyridin-3-yl)-6-(pyridin-3-yl)-3H-imidazo[4,5-b]pyridin-3-yl)phenyl)azetidin-1-yl)methyl)cyclohexane-1-carboxylic acid], the results for the IC50 in assay [1] and in assay [2] were less than 20 µM and no less than 2 µM, respectively.

Turning to `CN(Cc1ccc(-n2c(-c3cccnc3N)nc3ccc(-c4ccccc4)nc32)c(F)c1)[C@H]1CC[C@@H](C(=O)O)CC1` [Compound I-165], the IC50 in assay [1] was less than 20 µM; in assay [2], less than 0.5 µM.

As for `Cc1c(-n2c(-c3cccnc3N)nc3ccc(-c4ccccc4)nc32)ccc(NC(=O)C2CC3(CC(C(=O)O)C3)C2)c1F` (stereo not shown) [Compound I-101, 6-((4-(2-(2-aminopyridin-3-yl)-5-phenyl-3H-imidazo[4,5-b]pyridin-3-yl)-2-fluoro-3-methylphenyl)carbamoyl)spiro[3.3]heptane-2-carboxylic acid], the IC50 was less than 20 µM in assay [1] and no less than 2 µM in assay [2].

As for `Nc1ncccc1-c1nc2ccc(-c3ccccc3)nc2n1-c1ccc(C2CN(C[C@H]3CC[C@H](C(=O)O)CC3)C2)c(F)c1` [Compound I-62, (1r,4r)-4-((3-(4-(2-(2-aminopyridin-3-yl)-5-phenyl-3H-imidazo[4,5-b]pyridin-3-yl)-2-fluorophenyl)azetidin-1-yl)methyl)cyclohexane-1-carboxylic acid], the IC50 in assay [1] is less than 20 µM; in assay [2] it was 0.5 to 2 µM.

On to `Nc1ncccc1-c1nc2ccc(-c3ccccc3)nc2n1-c1ccc(C(=O)N2CC3(CC(C(=O)O)C3)C2)cc1` [Compound I-80, 2-(4-(2-(2-aminopyridin-3-yl)-5-phenyl-3H-imidazo[4,5-b]pyridin-3-yl)benzoyl)-2-azaspiro[3.3]heptane-6-carboxylic acid], for which the IC50 was less than 20 µM in assay [1] and no less than 2 µM in assay [2].

For the compound `Nc1ncccc1-c1nc2ccc(-c3ccccc3)nc2n1-c1ccc(NC(=O)C2CCC(C(=O)O)CC2)cc1F` (stereo not shown) [Compound I-5, 4-((4-(2-(2-aminopyridin-3-yl)-5-phenyl-3H-imidazo[4,5-b]pyridin-3-yl)-3-fluorophenyl)carbamoyl)cyclohexane-1-carboxylic acid], the values for the IC50 in assay [1] and in assay [2] were less than 20 µM and 0.5 to 2 µM, respectively.

Take `CC1(C)C[C@H](CN2CC(c3ccc(-n4c(-c5cccnc5N)nc5ccc(-c6ccccc6)nc54)cc3)C2)CC[C@H]1C(=O)O` [Compound I-71, (1R,4R)-4-((3-(4-(2-(2-aminopyridin-3-yl)-5-phenyl-3H-imidazo[4,5-b]pyridin-3-yl)phenyl)azetidin-1-yl)methyl)-2,2-dimethylcyclohexane-1-carboxylic acid]: the values for the IC50 in assay [1] and in assay [2] were less than 20 µM and less than 0.5 µM, respectively.

For the compound `Cc1cc(C2(C)CN(C[C@H]3CC[C@H](C(=O)O)CC3)C2)ccc1-n1c(-c2cccnc2N)nc2ccc(-c3ccccc3)nc21` [Compound I-156], the half-inhibitory concentration (IC50) in assay [1] was less than 20 µM; in assay [2], 0.5 to 2 µM.

As to `Cc1nc(N[C@H]2CC[C@@H](C(=O)O)CC2)ccc1-n1c(-c2cccnc2N)nc2ccc(-c3ccccc3)nc21` [Compound I-134, (1s,4s)-4-((5-(2-(2-aminopyridin-3-yl)-5-phenyl-3H-imidazo[4,5-b]pyridin-3-yl)-6-methylpyridin-2-yl)amino)cyclohexane-1-carboxylic acid], the IC50 in assay [1] was less than 20 µM; in assay [2] it was 0.5 to 2 µM.

Take `Nc1ncccc1-c1nc2ccc(-c3ccccc3)nc2n1-c1ccc(C(=O)N[C@H]2CC[C@H](C(=O)O)CC2)cc1` [Compound I-16, (1r,4r)-4-(4-(2-(2-aminopyridin-3-yl)-5-phenyl-3H-imidazo[4,5-b]pyridin-3-yl)benzamido)cyclohexane-1-carboxylic acid]: the figures for the IC50 in assay [1] and in assay [2] were less than 20 µM and less than 0.5 µM, respectively.

Turning to `Nc1ncccc1-c1nc2ccc(-c3ccccc3)cc2n1-c1ccc(NC(=O)C2CCC(C(=O)O)C2)nc1` (stereo not shown) [Compound I-110, 3-((5-(2-(2-aminopyridin-3-yl)-6-phenyl-1H-benzo[d]imidazol-1-yl)pyridin-2-yl)carbamoyl)cyclopentane-1-carboxylic acid], the IC50 was less than 20 µM in assay [1] and no less than 2 µM in assay [2].

For the compound `Cc1cc2nc(-c3cccnc3N)n(-c3ccc(C4CN(C[C@H]5CC[C@@H](C(=O)O)CC5)C4)cc3)c2nc1-c1ccccc1` [Compound I-234, Cis-4-((3-(4-(2-(2-aminopyridin-3-yl)-6-methyl-5-phenyl-3H-imidazo[4,5-b]pyridin-3-yl)phenyl)azetidin-1-yl)methyl)cyclohexane-1-carboxylic acid], the IC50 is less than 20 µM in assay [1] and less than 0.5 µM in assay [2].

Consider `Nc1ncccc1-c1nc2ccc(-c3ccccc3)nc2n1-c1ccc(NC(=O)[C@H]2CC[C@@H](C(=O)O)CC2)cc1` [Compound I-3, cis-4-[[4-[2-(2-amino-3-pyridyl)-5-phenyl-imidazo[4,5-b]pyridin-3-yl]phenyl]carbamoyl]cyclohexanecarboxylic acid], for which the IC50 in assay [1] is less than 20 µM; in assay [2], less than 0.5 µM.

In the case of `CC(C)(C(=O)O)C1CCN(Cc2ccc(-n3c(-c4cccnc4N)nc4ccc(-c5ccccc5)nc43)cc2)CC1` [Compound I-92, 2-(1-(4-(2-(2-aminopyridin-3-yl)-5-phenyl-3H-imidazo[4,5-b]pyridin-3-yl)benzyl)piperidin-4-yl)-2-methylpropanoic acid], the IC50 in assay [1] was less than 20 µM; in assay [2] it was no less than 2 µM.

As to `Nc1ncccc1-c1nc2ccc(-c3ccccc3)nc2n1-c1ccc(NC(=O)C2CCC(C(=O)O)C2)cc1` (stereo not shown) [Compound I-1, 3-((4-(2-(2-aminopyridin-3-yl)-5-phenyl-3H-imidazo[4,5-b]pyridin-3-yl)phenyl)carbamoyl)cyclopentane-1-carboxylic acid], the IC50 in assay [1] is less than 20 µM; in assay [2], less than 0.5 µM.

Consider `CC(C)[C@@H]([C@H]1CC[C@H](C(=O)O)CC1)N1CC(c2ccc(-n3c(-c4cccnc4N)nc4ccc(-c5ccccc5)nc43)cc2)C1` [Compound I-74, (1S,4r)-4-((S)-1-(3-(4-(2-(2-aminopyridin-3-yl)-5-phenyl-3H-imidazo[4,5-b]pyridin-3-yl)phenyl)azetidin-1-yl)-2-methylpropyl)cyclohexane-1-carboxylic acid], for which the IC50 in assay [1] was less than 20 µM; in assay [2], no less than 2 µM.

For `Nc1ncccc1-c1nc2ccc(-c3ccccc3F)nc2n1-c1ccc([C@@H]2CCN(C[C@H]3CC[C@H](C(=O)O)CC3)C2)cc1` (single isomer, unassigned) [Compound I-231], the IC50 in assay [1] is less than 20 µM; in assay [2], less than 0.5 µM.

As to `CCN(Cc1ccc(-n2c(-c3cccnc3N)nc3ccc(-c4ccccc4)nc32)c(F)c1)[C@H]1CC[C@H](C(=O)O)CC1` [Compound I-163], the IC50 in assay [1] was less than 20 µM; in assay [2], no less than 2 µM.

Regarding `Nc1ncccc1-c1nc2ccc(-c3ccccc3)nc2n1-c1ccc(C2CN(C[C@@H]3CC[C@H](C(=O)O)C3)C2)cc1` [Compound I-58, (1S,3R)-3-((3-(4-(2-(2-aminopyridin-3-yl)-5-phenyl-3H-imidazo[4,5-b]pyridin-3-yl)phenyl)azetidin-1-yl)methyl)cyclopentane-1-carboxylic acid], the IC50 is less than 20 µM in assay [1] and less than 0.5 µM in assay [2].
